Measured values taken from patent publication US7763615B2, “Ecteinascidin analogs for use as antitumour agents” (priority 2001, dated 2010).
Where two headings read alike, the source gives them in different places.

Legend:
[1] = test system: NRK-52E, normal rat kidney cells; details: 24 h
[2] = test system: L8, normal rat skeletal muscle cells; details: 24 h
[3] = test system: SK-OV3; assay: Inhibition of cells growth by colorimetric assay (SRB), SK-OV3; type: cell-based; details: SK-OV3, 48 hours exposure, SRB
Source text: (§1) The finality of these assays is to interrupt the growth of a “in vitro” tumor cell culture by means of a continued exhibition of the cells to the sample to be testing.
(§2) A colorimetric type of assay, using sulphorhodamine B (SRB) reaction has been adapted for a quantitative measurement of cell growth and viability [following the technique described by Philip Skehan, et al. (1990), New colorimetric cytotoxicity assay for anticancer drug screening, J. Natl. Cancer Inst., 82:1107-1112]
(§3) This form of the assay employs 96 well cell culture microplates of 9 mm diameter (Faircloth, 1988; Mosmann, 1983). Most of the cell lines are obtained from American Type Culture Collection (ATCC) derived from different human cancer types.
(§4) Cells are maintained in RPMI 1640 10% FBS, supplemented with 0.1 g/l penicillin and 0.1 g/l streptomycin sulphate and then incubated at 37° C., 5% CO2 and 98% humidity. For the experiments, cells were harvested from subconfluent cultures using trypsin and resuspended in fresh medium before plating.
(§5) Cells are seeded in 96 well microtiter plates, at 5×10^3 cells per well in aliquots of 195 μl medium, and they are allowed to attach to the plate surface by growing in drug free medium for 18 hours. Afterward, samples are added in aliquots of 5 μl in a ranging from 10 to 10^−8 μg/ml, dissolved in DMSO/EtOH/PBS (0.5:0.5:99). After 48 hours exposure, the antitumor effect are measured by the SRB methodology: cells are fixed by adding 50 μl of cold 50% (wt/vol) trichloroacetic acid (TCA) and incubating for 60 minutes at 4° C. Plates are washed with deionized water and dried. One hundred μl of SRB solution (0.4% wt/vol in 1% acetic acid) is added to each microtiter well and incubated for 10 minutes at room temperature. Unbound SRB is removed by washing with 1% acetic acid. Plates are air dried and bound stain is solubilized with Tris buffer. Optical densities are read on a automated spectrophotometric plate reader at a single wavelength of 490 nm.
(§6) The values for mean+/− SD of data from triplicate wells are calculated. Some parameters for cellular responses can be calculated: GI=growth inhibition, TGI=total growth inhibition (cytostatic effect) and LC=cell killing (cytotoxic effect).

[4] = test system: DU145; assay: cells; type: cell-based; details: for CC50: read-out: LC50
Source text: as §1, §2, §3, §4, §5, §6

[5] = test system: LOVO-DOX; assay: cells; type: cell-based; details: LOVO-DOX, 48 hours exposure, SRB
Source text: as §1, §2, §3, §4, §5, §6

[6] = test system: HT29; assay: cells; type: cell-based
Source text: as §1, §2, §3, §4, §5, §6

[7] = test system: K562; assay: cells; type: cell-based
Source text: as §1, §2, §3, §4, §5, §6

[8] = test system: PANC-1; assay: cells; type: cell-based; details: PANC-1, 48 hours exposure, SRB
Source text: as §1, §2, §3, §4, §5, §6

[9] = test system: LNCAP; assay: cells; type: cell-based; details: LNCAP, 48 hours exposure, SRB
Source text: as §1, §2, §3, §4, §5, §6

[10] = test system: SK-BR3; assay: cells; type: cell-based; details: SK-BR3, 48 hours exposure, SRB
Source text: as §1, §2, §3, §4, §5, §6

[11] = test system: MEL-28; assay: cells; type: cell-based; details: Homo sapiens, SK-MEL-28, 48 h; for GI50 / IC (TGI): MEL-28, 48 hours exposure, SRB
Source text: as §1, §2, §3, §4, §5, §6

[12] = test system: IGROV-ET; assay: cells; type: cell-based; details: IGROV-ET, 48 hours exposure, SRB
Source text: as §1, §2, §3, §4, §5, §6

[13] = test system: A549; assay: cells; type: cell-based; details: for GI50: read-out: GI50; for IC (TGI): read-out: TGI
Source text: as §1, §2, §3, §4, §5, §6

[14] = test system: IGROV; assay: cells; type: cell-based
Source text: as §1, §2, §3, §4, §5, §6

[15] = test system: LOVO; assay: cells; type: cell-based; details: LOVO, 48 hours exposure, SRB
Source text: as §1, §2, §3, §4, §5, §6

[16] = test system: FDC-P1, normal mouse myelogeous stem cells; details: 24 h
[17] = test system: AML-12, normal mouse liver cells; details: 24 h
Procedure: In order to assess the cytotoxicity of the drugs to normal cells, we used 96 well plates plated at a density of 5000 cells per well (except for the FDC-P1 which were plated at 12,000 cells per well) with normal cell lines (ATCC, Table 1) maintained as per the directions of the ATCC: AML-12, normal mouse liver cells; NRK-52E, normal rat kidney cells; L8, normal rat skeletal muscle cells; FDC-P1, normal mouse myelogeous stem cells; and H9c2 (2-1), normal rat cardiac muscle cells. The cells in each plate were permitted to settle overnight before adding the test drug.
To each well (100 μl medium) 10 μl of drug in media was added at varying concentrations (1×10-10-0.01 mg/ml final concentration) and further incubated overnight at 37° C. with 5% CO2. After 24 h the following assays were performed. All experiments were repeated at least 3 times and were assayed in duplicate.
MTS assay (CellTiter 96 aqueous) was performed according to the manufacturer's (Promega) directions (for all cell types). Cell viability (mitochondrial activity) is determined via enzymatic conversion of the formazan substrate.

[18] = test system: H-MEC-1; assay: Inhibition of cells growth by colorimetric assay (SRB), H-MEC-1; type: cell-based; details: H-MEC-1, 48 hours exposure, SRB
Source text: as §1, §2, §3, §4, §5, §6

[19] = test system: SW-620; assay: cells; type: cell-based; details: Homo sapiens
Source text: as §1, §2, §3, §4, §5, §6

[20] = test system: MB231; assay: cells; type: cell-based; details: Homo sapiens
Source text: as §1, §2, §3, §4, §5, §6

[21] = test system: MCF; assay: cells; type: cell-based; details: Homo sapiens
Source text: as §1, §2, §3, §4, §5, §6

[22] = test system: A498; assay: cells; type: cell-based; details: Homo sapiens
Source text: as §1, §2, §3, §4, §5, §6

[23] = Homo sapiens, HT-29, 48 h, read-out: LC50, HT29, 48 hours exposure, SRB
[24] = Homo sapiens, DU-145, 48 h, DU145, 48 hours exposure, SRB
[25] = Homo sapiens, HT-29, 48 h, HT29, 48 hours exposure, SRB
[26] = Homo sapiens, A549, 48 h, A549, 48 hours exposure, SRB
[27] = Homo sapiens, HT-29, 48 h, HT29, 48 hours exposure, SRB, read-out: LC50 (the source's name)
[28] = Homo sapiens, A549, 48 h, A549, 48 hours exposure, SRB, read-out: LC50 (the source's name)
[29] = Homo sapiens, HMEC-1, read-out: LC50 (the source's name)

Structure (SMILES): COc1c(C)cc2c(c1O)[C@@H]1C3[C@@H]4SC[C@]5(C(=O)COC[C@@H](c6c7c(c(C)c(OC(C)=O)c64)OCO7)N3[C@@H](O)[C@H](C2)N1C)c1[nH]c2ccccc2c1CCN5C (stereo partly shown) [Compound 39]
- Kidney [1]: 9.88E−05
- Skeletal [2]: 4.58E−07
- GI50 [3]: 62.4 nM
- TGI [3]: 3.19E−07 Molar
- CC50 ([3]; read-out: LC50): 13000 nM
- GI50 ([4]; DU145, 48 hours exposure, SRB): 55.9 nM
- TGI ([4]; DU145, 48 hours exposure, SRB): 2.03E−06 Molar
- CC50 ([4]; DU145, 48 hours exposure, SRB): 13000 nM
- GI50 [5]: 234 nM
- TGI [5]: 9.94E−07 Molar
- CC50 ([5]; read-out: LC50): 13000 nM
- GI50 ([6]; HT29, 48 hours exposure, SRB): 48.5 nM
- TGI ([6]; HT29, 48 hours exposure, SRB): 1.73E−05 Molar
- CC50 [6, 23]: 13000 nM
- CC50 ([7]; Homo sapiens, K562, 48 h, read-out: LC50, K562, 48 hours exposure, SRB): 79.2 nM
- GI50 ([7]; K562, 48 hours exposure, SRB): 25.1 nM
- TGI ([7]; K562, 48 hours exposure, SRB): 4.46E−08 Molar
- GI50 [8]: 60.1 nM
- TGI [8]: 9.22E−07 Molar
- CC50 ([8]; read-out: LC50): 13000 nM
- GI50 [9]: 20.5 nM
- TGI [9]: 4.41E−08 Molar
- CC50 ([9]; read-out: LC50): 94.7 nM
- GI50 [10]: 49.9 nM
- TGI [10]: 1.10E−07 Molar
- CC50 ([10]; read-out: LC50): 944 nM
- GI50 [11]: 34.7 nM
- IC (TGI) [11]: 69.1 nM
- CC50 ([11]; read-out: LC50, MEL-28, 48 hours exposure, SRB): 181 nM
- GI50 [12]: 82.5 nM
- TGI [12]: 4.04E−06 Molar
- CC50 ([12]; read-out: LC50): 13000 nM
- TGI ([13]; A549, 48 hours exposure, SRB): 8.74E−08 Molar
- GI50 ([13]; A549, 48 hours exposure, SRB): 46.7 nM
- CC50 ([13]; read-out: LC50, A549, 48 hours exposure, SRB): 2320 nM
- GI50 ([14]; 48 hours exposure, SRB): 43 nM
- TGI ([14]; 48 hours exposure, SRB): 8.15E−08 Molar
- CC50 ([14]; read-out: LC50, 48 hours exposure, SRB): 2320 nM
- GI50 [15]: 32.1 nM
- TGI [15]: 6.22E−08 Molar
- CC50 ([15]; read-out: LC50): 120 nM
- Myelo [16]: 4.10E−07
- Liver [17]: 1.14E−06
- GI50 [18]: 58.1 nM
- TGI [18]: 1.46E−06 Molar
- CC50 ([18]; read-out: LC50): 13000 nM

Structure (SMILES): COc1c(C)cc2c(c1O)[C@@H]1C3[C@@H]4SC[C@]5(NCCc6c5[nH]c5ccccc65)C(=O)COC[C@@H](c5c6c(c(C)c(OC(=O)C(F)(F)C(F)(F)C(F)(F)F)c54)OCO6)N3[C@@H](O)[C@H](C2)N1C (stereo partly shown) [Compound 62]
- GI50 [4, 24]: 2.2 nM
- IC (TGI) [4, 24]: 4.4 nM
- CC50 ([4]; Homo sapiens, DU-145, 48 h): 9.9 nM
- GI50 [6, 25]: 11 nM
- IC (TGI) [6, 25]: 66 nM
- CC50 [6, 23]: 99 nM
- CC50 ([19]; SW-620, 48 h, read-out: LC50): 110 nM
- IC (TGI) ([19]; SW-620, 48 hours exposure, SRB): 55 nM
- GI50 ([19]; SW-620, 48 hours exposure, SRB, read-out: GI50): 22 nM
- CC50 ([20]; 48 h, read-out: LC50): 33 nM
- GI50 ([20]; MB231, 48 hours exposure, SRB): 1.1 nM
- IC (TGI) ([20]; MB231, 48 hours exposure, SRB, read-out: TGI): 5.5 nM
- GI50 [11]: 3.3 nM
- IC (TGI) [11]: 1.1 nM
- CC50 ([11]; read-out: LC50): 33 nM
- CC50 ([21]; 48 h, read-out: LC50): 110 nM
- GI50 ([21]; MCF, 48 hours exposure, SRB): 2.2 nM
- IC (TGI) ([21]; MCF, 48 hours exposure, SRB, read-out: TGI): 9.9 nM
- CC50 ([22]; A498, 48 h, read-out: LC50): 11 nM
- GI50 ([22]; A498, 48 hours exposure, SRB): 3.3 nM
- IC (TGI) ([22]; A498, 48 hours exposure, SRB): 4.4 nM
- GI50 [13, 26]: 8.8 nM
- IC (TGI) [13, 26]: 33 nM
- CC50 ([13]; Homo sapiens, A549, 48 h, read-out: LC50, A549, 48 hours exposure, SRB): 77 nM

Structure (SMILES): COc1c(C)cc2c(c1O)[C@@H]1C3[C@@H]4SC[C@]5(NCCc6c5[nH]c5ccccc65)C(=O)COC[C@@H](c5c6c(c(C)c(OC(=O)OC(C)(C)C)c54)OCO6)N3[C@@H](O)[C@H](C2)N1C (stereo partly shown) [Compound 65]
- GI50 [6, 25]: 0.856 nM
- IC (TGI) [6, 25]: 20.5 nM
- CC50 [6, 27]: 12300 nM
- GI50 [13, 26]: 2.05 nM
- CC50 [13, 28]: 47.9 nM
- IC (TGI) [13, 26]: 6.3 nM
- GI50 ([18]; Homo sapiens, HMEC-1, 48 h): 0.613 nM
- IC (TGI) ([18]; Homo sapiens, HMEC-1, 48 h): 43.5 nM
- CC50 [18, 29]: 12300 nM

Structure (SMILES): COc1c(C)cc2c(c1OC(C)(C)C)[C@@H]1C3[C@@H]4SC[C@]5(NCCc6c5[nH]c5ccccc65)C(=O)COC[C@@H](c5c6c(c(C)c(OC(=O)OC(C)(C)C)c54)OCO6)N3[C@@H](O)[C@H](C2)N1C (stereo partly shown) [Compound 66]
- GI50 [6, 25]: 28 nM
- IC (TGI) [6, 25]: 113 nM
- CC50 [6, 27]: 11000 nM
- GI50 [13, 26]: 20.9 nM
- CC50 [13, 28]: 376 nM
- IC (TGI) [13, 26]: 57.5 nM
- GI50 ([18]; Homo sapiens, HMEC-1, 48 h): 20.7 nM
- IC (TGI) ([18]; Homo sapiens, HMEC-1, 48 h): 80.4 nM
- CC50 [18, 29]: 11000 nM

Structure (SMILES): C=COC(=O)Oc1c(C)c2c(c3c1[C@H]1SC[C@]4(NCCc5c4[nH]c4ccccc54)C(=O)COC[C@@H]3N3C1[C@H]1c4c(cc(C)c(OC)c4O)C[C@@H]([C@@H]3O)N1C)OCO2 (stereo partly shown) [Compound 67]
- GI50 [6, 25]: 1.9 nM
- IC (TGI) [6, 25]: 128 nM
- CC50 [6, 27]: 12800 nM
- GI50 [13, 26]: 0.455 nM
- CC50 [13, 28]: 128 nM
- IC (TGI) [13, 26]: 2.86 nM
- GI50 ([18]; Homo sapiens, HMEC-1, 48 h): 0.521 nM
- IC (TGI) ([18]; Homo sapiens, HMEC-1, 48 h): 128 nM
- CC50 [18, 29]: 12800 nM
